Laboratory results published in patent US8372412B2, “Bioassay and peptides for use therein” (Rapid Biosensor Systems Limited, priority 2005, dated 2013).
“Also recorded” adds a separate entry of the source.

Columns and labels:
[1] = system: antisera (from rabbit) to the p3 18-mer (SEQ ID 11); experiment: Targeted Epitope ELISA (competitive ELISA against plate-coated p3 18-mer P779); type: binding; conditions: for binding to the antisera relative to the p3 18-mer: competitive ELISA as before, 6-mers and re-tested 9-mer P782-10
Experimental: (§1) These peptides, along with the p3 18-mer (SEQ ID 11) were screened against antisera (from rabbit) to the p3 18-mer (SEQ ID 11). The screen utilized the competitive ELISA (Enzyme-linked immunosorbant assay) technique, which was used to assess the relative binding affinities of the 9-mer peptides to the 18-mer peptide.
(§2) Briefly, the assay involved binding (coating) the p3 18-mer (P779, SEQ ID 11) to ELISA plates, followed by incubation with variables amounts of competing ligand (9-mers, SEQ ID 1-10) with the antisera (1:250 dilution). The level of binding of the antisera to p3 18-mer (P779, SEQ ID 11) was indicated by treatment with goat anti-rabbit peroxidase conjugated antibody and then by addition of a chromogenic substrate ABTS (2,2-azino-di-[3-ethylbenzthiazoline sulphonate]) and hydrogen peroxide where upon a green colour developed which was recorded as an optical density (absorbance) on a plate reader. The colour development is proportional to the level of binding of the primary antisera bound to the plate.
A test ELISA was performed in order to ascertain the concentrations of coating peptide and competing peptides for the ELISA experiments, comprising a competitive ELISA of 9-mer P782-1 ([…])—SEQ ID 1—against 18-mer P779 ([…])—SEQ ID 11 (Mustafa, A. S. et al, supra). This 9-mer was chosen as it also overlaps with the p2 18-mer ([…])—SEQ ID 12. […] ELISA plates were coated with 2 μM solution of p3 18-mer (P779)—SEQ ID 11—and used 500 μM solutions of competing peptides, which were then subjected to four-fold serial dilution.
A Targeted Epitope ELISA was then designed to test the importance of the C-terminal region of the epitope on binding to the antisera. Two 6-mers were synthesized, P782-11 (GNNSPA)—SEQ ID 13—and P782-12 (NNSPAV)—SEQ ID 14, which are truncated forms of their respective 9-mers and subjected these to competitive ELISA as before and also re-tested the 9-mer P782-10 (SEQ ID 10) identified as a significant epitope in the Epitope Mapping ELISA.

[2] = system: antisera (from rabbit) to the p3 18-mer (SEQ ID 11); experiment: Epitope Mapping ELISA (competitive ELISA against plate-coated p3 18-mer P779); type: binding; conditions: plates coated with 2 μM P779, competing peptides 500 μM, four-fold serial dilution, antisera 1:250
Experimental: as §1, §2
A test ELISA was performed in order to ascertain the concentrations of coating peptide and competing peptides for the ELISA experiments, comprising a competitive ELISA of 9-mer P782-1 ([…])—SEQ ID 1—against 18-mer P779 ([…])—SEQ ID 11 (Mustafa, A. S. et al, supra). This 9-mer was chosen as it also overlaps with the p2 18-mer ([…])—SEQ ID 12. […]

[3] = Heat stability of peptide variants; type: physicochemical; conditions: C-terminal variants of SGGNNSPA-X; no method or data given

GNNSPA (listed as Mycobacterium tuberculosis) [P782-11]
binding to the antisera relative to the p3 18-mer [1]: did not bind to the antisera

NNSPAV (listed as Mycobacterium tuberculosis) [P782-12]
binds to the antisera less tightly relative to either 9-mer P782-10 or 18-mer P779 ([1]; competitive ELISA, relative binding affinity): 1.99 fold

QSGGNNSPA (listed as Mycobacterium tuberculosis) [P782-9]
binding to the antisera relative to the p3 18-mer [2]: no significant binding

SGGNNSPAA (Modification (at position 9) of native Mycobacterium tuberculosis sequence) [SEQ ID 15]
heat stability [3]: particularly good Leu-heat stability; also recorded: increased heat stability

SGGNNSPAV (listed as Mycobacterium tuberculosis) [P782-10]
binding to the antisera relative to the p3 18-mer [2]: bound to the antisera as tightly as the p3 18-mer peptide
binding to the antisera relative to the p3 18-mer [1]: bound to the antisera as tightly as the p3 18-mer peptide P779
